Data taken from patent US20260256873A1, “MODIFIED CAVEOLIN-1 PEPTIDE FORMULATIONS AND METHODS OF MANUFACTURING AND USE THEREOF” (LUNG THERAPEUTICS, INC., priority 2022, published 2026).
Values joined by “and” are separate entries in the source; they are usually repeats but may differ in a detail not shown here. Equal values may be shown once. Read-outs that look alike come from different tables or passages of the source. Where a SMILES comes first, the peptide text is derived from it. [ ]: non-standard residue; d: D form.

Experiments:
[1] = APi2355 concentrations in various tissues at 42 days post treatment (LC/MS/MS); type: in vivo; settings: male, Sprague Dawley, rat, sc, 2 mg/kg, mean of 6 rats, single SC 2.0 mg/kg in SAIB formulation
Protocol: (§1) The plasma pharmacokinetics of the Cav-1 peptide (APi2355) SAIB formulation prepared according to Example 1 (5.66% w/w APi2355 75.47% w/w SAIB and 18.87% w/w NMP to provide 7% w/w APi2355 to 93% w/w SAIB) were assessed over 42 days after a single-dose subcutaneous administration to male Sprague Dawley rats. The rats (n=6) received one of three batches of the APi2355 SAIB formulations prepared according to Example 1 at a dose of 2.0 mg/kg of APi2355 in 0.033 mL/kg (concentration 60.0 mg/mL). Control group of rats (n=2) received an injection of vehicle formulation containing no APi2355.
(§2) Animals were assigned to groups by a stratified randomization scheme designed to achieve similar group mean body weights. The animals were acclimated to their designated housing for at least 5 days before the day dosing. All formulations were administered in a single dose by dorsal subcutaneous (SC) injection on day 0. Whole blood samples (40-50 μl) were collected from all animals in APi2355 treated group at pre-dose and 1 h, 2 h, 4 h, 8 h, 1 day, 2 days, 4 days, 7 days, 10 days, 14 days, 21 days, 29 days, and 35 days post-treatment. Whole blood samples (40-50 μl, by tail nick) were collected from all animals in control group at pre-dose and at 1 h and 1 day post-treatment. Blood was collected into K2EDTA tubes. Tubes were mixed gently after blood collection, chilled and centrifuged at 3000 rpm and 4° C., within 30 minutes upon collection. The resultant plasma was separated, transferred to uniquely labeled polypropylene tubes and frozen at −20° C. Plasma and tissue samples were analyzed for concentration of APi2355 using a qualified analytical procedure for LC/MS/MS.
(§3) Terminal whole blood samples (maximal volume by cardiac stick) and tissues were collected from all animals on day 42 post-treatment. Tissues included tissues from heart, liver, kidney, lung, and injection site skin patches. Additionally, lungs were processed for bronchial lavage samples. Tissue samples were analyzed for APi2355 by LC/MS/MS.

[2] = Plasma pharmacokinetics of the APi2355 SAIB formulation over 42 days after single-dose subcutaneous administration; type: in vivo, male Sprague Dawley rats; settings: for Tmax: sc
Protocol: as §1
as §2, with “Whole blood samples (40-50 μl) were collected from all animals in APi2355 treated group at pre-dose and 1 h, 2 h, 4 h, 8 h, 1 day, 2 days, 4 days, 7 days, 10 days, 14 days, 21 days, 29 days, and 35 days post-treatment.” left out
as §3

[3] = individual rats, single SC 2.0 mg/kg APi2355 in SAIB formulation, 2 mg/kg
[4] = rat plasma, single SC 2.0 mg/kg in SAIB formulation

SMILES: CC(=O)N[C@H](C)C(=O)N[C@H](C)C(=O)N[C@@H](CCC(=O)O)C(=O)NCC(=O)N[C@@H](CCCCN)C(=O)N[C@@H](C)C(=O)N[C@@H](CO)C(=O)N[C@@H](Cc1ccccc1)C(=O)N[C@H](C(=O)N[C@H](C(=O)N[C@@H](Cc1ccccc1)C(=O)N[C@H](C(=O)N[C@H](C(=O)N[C@H](C(=O)N[C@@H](CCCCN)C(=O)NCC(=O)N[C@@H](CO)C(=O)N[C@H](C)C(=O)N[C@H](C)C(N)=O)[C@@H](C)O)C(C)C)[C@@H](C)O)[C@@H](C)O)[C@@H](C)O [APi2355, Ac-aaEGKASFTTFTVTKGSaa-NH2] (Ac-[dA][dA]EGKASFTTFTVTKGS[dA][dA]-NH2)
- level at 1008 h ([1]; bronchoalveolar lavage fluid (BALF), read-out: Concentration in BALF (bronchoalveolar lavage fluid), Mean): 0.99 ng/mL
- tissue level at time at 1008 h ([1]; heart, read-out: Concentration in Heart, Mean): 12.1 ng/g
- tissue level at time at 1008 h ([1]; injection site skin, injection site skin, read-out: Concentration in Skin, Mean): 4.95 ng/g
- tissue level at time at 1008 h ([1]; kidney, read-out: Concentration in Kidney, Mean): 53.2 ng/g
- tissue level at time at 1008 h ([1]; liver, read-out: Concentration in Liver, Mean): 1.23 ng/g
- tissue level at time at 1008 h ([1]; lung, read-out: Concentration in Lung, Mean): 68 ng/g
- AUC0-14, Mean ([2]; dose to day 14, rat plasma, single SC 2.0 mg/kg in SAIB formulation): 126 ng·days/mL
- AUC0-22, Mean ([2]; dose to day 22, rat plasma, single SC 2.0 mg/kg in SAIB formulation): 146 ng·days/mL
- AUCinf, Mean ([2]; extrapolated to infinity (AUClast + Clast/λz), rat plasma, single SC 2.0 mg/kg in SAIB formulation): 183 ng·days/mL
- CL/F ([2]; in vivo, apparent plasma clearance, rat, single SC 2.0 mg/kg in SAIB formulation): 6.94 mL/min/kg
- Vd/F ([2]; in vivo, apparent volume of distribution, terminal phase, rat, single SC 2.0 mg/kg in SAIB formulation, read-out: Vz/F, Mean): 133 L/kg
- AUC(0-t) ([2]; in vivo, log/linear trapezoidal method, rat plasma, single SC 2.0 mg/kg in SAIB formulation, read-out: AUClast, Mean (converted)): 3940 ng·h/mL
- Cmax ([2]; in vivo, rat plasma, single SC 2.0 mg/kg APi2355 in SAIB formulation): 477 ng/mL
- half-life ([2]; in vivo, rat plasma, single SC 2.0 mg/kg in SAIB formulation, read-out: Half-life (terminal), Mean (converted)): 222 h
- MRT last ([2]; in vivo, rat plasma, single SC 2.0 mg/kg in SAIB formulation, read-out: MRTlast, Mean (converted)): 188 h
- APi2355 plasma concentration 1 hr post-treatment [2, 3]: 202.00 ng/mL and 232.90 ng/mL and 109.02 ng/mL and 101.53 ng/mL and 84.70 ng/mL and 557.93 ng/mL
- APi2355 plasma concentration 2 hr post-treatment [2, 3]: 884.98 ng/mL and 111.43 ng/mL and 37.62 ng/mL and 317.55 ng/mL and 539.82 ng/mL and 497.89 ng/mL
- APi2355 plasma concentration 4 hr post-treatment [2, 3]: 26.95 ng/mL and 102.25 ng/mL and 328.27 ng/mL and 164.91 ng/mL and 97.42 ng/mL and 52.01 ng/mL
- APi2355 plasma concentration 8 hr post-treatment [2, 3]: 23.90 ng/mL and 54.20 ng/mL and 80.69 ng/mL and 75.60 ng/mL and 47.06 ng/mL and 39.24 ng/mL
- APi2355 plasma concentration 1 day post-treatment [2, 3]: 10.32 ng/mL and 11.86 ng/mL and 20.55 ng/mL and 12.72 ng/mL and 19.85 ng/mL and 25.11 ng/mL
- APi2355 plasma concentration 2 day post-treatment [2, 3]: 6.13 ng/mL and 3.87 ng/mL and 2.54 ng/mL and 8.72 ng/mL and 14.40 ng/mL and 6.90 ng/mL
- APi2355 plasma concentration 4 day post-treatment [2, 3]: 4.65 ng/mL and 3.40 ng/mL and 1.29 ng/mL and 2.17 ng/mL and 1.84 ng/mL and 1.41 ng/mL
- APi2355 plasma concentration 7 day post-treatment [2, 3]: 15.91 ng/mL and 5.07 ng/mL and 2.40 ng/mL and 2.14 ng/mL and 5.18 ng/mL and 1.44 ng/mL
- APi2355 plasma concentration 10 day post-treatment [2, 3]: 2.09 ng/mL and 2.04 ng/mL and 10.43 ng/mL and 5.54 ng/mL and 2.38 ng/mL and 1.58 ng/mL
- APi2355 plasma concentration 14 day post-treatment [2, 3]: 1.66 ng/mL and 1.24 ng/mL and 7.00 ng/mL and 1.83 ng/mL and 1.64 ng/mL and 3.04 ng/mL
- APi2355 plasma concentration 22 day post-treatment [2, 3]: 1.68 ng/mL and 1.87 ng/mL and 2.49 ng/mL and 5.68 ng/mL and 1.98 ng/mL and 1.93 ng/mL
- APi2355 plasma concentration 29 day post-treatment [2, 3]: 0.98 ng/mL and 0.50 ng/mL and 0.85 ng/mL and 0.65 ng/mL and 0.58 ng/mL and 0.16 ng/mL
- APi2355 plasma concentration 35 day post-treatment [2, 3]: 0.81 ng/mL and 1.13 ng/mL and 0.78 ng/mL and 0.10 ng/mL and 0.72 ng/mL and 4.20 ng/mL
- APi2355 plasma concentration 42 day post-treatment [2, 3]: 0.88 ng/mL and 0.29 ng/mL and 0.15 ng/mL and 0.00 ng/mL (2×) and 0.04 ng/mL
- Clast, Mean ([2]; last measurable concentration, rat plasma, single SC 2.0 mg/kg in SAIB formulation): 0.942 ng/mL
- level at 1 h ([2]; male, Sprague Dawley, rat, plasma, mean of 6 rats, single SC 2.0 mg/kg APi2355 in SAIB formulation, read-out: APi2355 plasma concentration 1 hr post-treatment, Mean): 215 ng/mL
- level at 2 h ([2]; male, Sprague Dawley, rat, plasma, mean of 6 rats, single SC 2.0 mg/kg APi2355 in SAIB formulation, read-out: APi2355 plasma concentration 2 hr post-treatment, Mean): 398 ng/mL
- level at 4 h ([2]; male, Sprague Dawley, rat, plasma, mean of 6 rats, single SC 2.0 mg/kg APi2355 in SAIB formulation, read-out: APi2355 plasma concentration 4 hr post-treatment, Mean): 129 ng/mL
- level at 8 h ([2]; male, Sprague Dawley, rat, plasma, mean of 6 rats, single SC 2.0 mg/kg APi2355 in SAIB formulation, read-out: APi2355 plasma concentration 8 hr post-treatment, Mean): 53.5 ng/mL
- level at 24 h ([2]; male, Sprague Dawley, rat, plasma, mean of 6 rats, single SC 2.0 mg/kg APi2355 in SAIB formulation, read-out: APi2355 plasma concentration 1 day post-treatment, Mean): 16.7 ng/mL
- level at 48 h ([2]; male, Sprague Dawley, rat, plasma, mean of 6 rats, single SC 2.0 mg/kg APi2355 in SAIB formulation, read-out: APi2355 plasma concentration 2 day post-treatment, Mean): 7.09 ng/mL
- level at 96 h ([2]; male, Sprague Dawley, rat, plasma, mean of 6 rats, single SC 2.0 mg/kg APi2355 in SAIB formulation, read-out: APi2355 plasma concentration 4 day post-treatment, Mean): 2.46 ng/mL
- level at 168 h ([2]; male, Sprague Dawley, rat, plasma, mean of 6 rats, single SC 2.0 mg/kg APi2355 in SAIB formulation, read-out: APi2355 plasma concentration 7 day post-treatment, Mean): 5.36 ng/mL
- level at 240 h ([2]; male, Sprague Dawley, rat, plasma, mean of 6 rats, single SC 2.0 mg/kg APi2355 in SAIB formulation, read-out: APi2355 plasma concentration 10 day post-treatment, Mean): 4.01 ng/mL
- level at 336 h ([2]; male, Sprague Dawley, rat, plasma, mean of 6 rats, single SC 2.0 mg/kg APi2355 in SAIB formulation, read-out: APi2355 plasma concentration 14 day post-treatment, Mean): 2.73 ng/mL
- level at 528 h ([2]; male, Sprague Dawley, rat, plasma, mean of 6 rats, single SC 2.0 mg/kg APi2355 in SAIB formulation, read-out: APi2355 plasma concentration 22 day post-treatment, Mean): 2.61 ng/mL
- level at 696 h ([2]; male, Sprague Dawley, rat, plasma, mean of 6 rats, single SC 2.0 mg/kg APi2355 in SAIB formulation, read-out: APi2355 plasma concentration 29 day post-treatment, Mean): 0.62 ng/mL
- level at 840 h ([2]; male, Sprague Dawley, rat, plasma, mean of 6 rats, single SC 2.0 mg/kg APi2355 in SAIB formulation, read-out: APi2355 plasma concentration 35 day post-treatment, Mean): 1.29 ng/mL
- level at 1008 h ([2]; male, Sprague Dawley, rat, plasma, mean of 6 rats, single SC 2.0 mg/kg APi2355 in SAIB formulation, read-out: APi2355 plasma concentration 42 day post-treatment, Mean): 0.23 ng/mL
- APi2355 detectable in the plasma following administration ([2]; number of rats, single SC 2.0 mg/kg in SAIB formulation): 4 out of 6
- % AUC Extrap, Mean [2, 4]: 9.00%
- extrapolated AUC of AUCinf [2, 4]: < 20%
- fraction of the total exposure of APi2355 occurring in the first 3 weeks after SC administration [2, 4]: Approximately ⅔
- Tmax ([2]; rat, in vivo, 2 mg/kg, rat plasma, single SC 2.0 mg/kg APi2355 in SAIB formulation, read-out: Tmax, Mean (converted)): 1.99 h
- Tmax ([2]; rat, in vivo, 2 mg/kg, rat plasma, single SC 2.0 mg/kg APi2355 in SAIB formulation, read-out: Tmax, median (converted)): 1.99 h
- Tlast, Mean ([2]; time of last quantifiable concentration, rat plasma, single SC 2.0 mg/kg in SAIB formulation): 39.7 days
